Measurements published in PubChem BioAssay AID248 (DTP/NCI, 2004).
Values joined by “and” are separate entries in the source; they are usually repeats but may differ in a detail not shown here. Equal entries are not always repeated. Inconclusive results and toxic doses are left out.

Tested on: L1210 leukemia ip in BDF1 mice, survival T/C
Experiment: NCI In Vivo Anticancer Drug Screen. Data for tumor model L1210 Leukemia (intraperitoneal) in B6D2F1 (BDF1) mice
Settings: endpoint: mean survival time, higher = longer survival
Procedure, shortened: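 Transplanted-tumor mice were given test agent; controls received vehicle only. Survival readings from the two groups were divided (treated over control).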

[1] = dose: 100.0 mg/kg/injection, schedule: Q04DX002 (ip), vehicle: Klucel (hydroxypropylcellulose) (HPC)
[2] = dose: 200.0 mg/kg/injection, schedule: Q04DX002 (ip), vehicle: Klucel (hydroxypropylcellulose) (HPC)
[3] = dose: 400.0 mg/kg/injection, schedule: Q04DX002 (ip), vehicle: Klucel (hydroxypropylcellulose) (HPC)
[4] = dose: 100.0 mg/kg/injection, schedule: Q01DX009 (ip), vehicle: saline
[5] = dose: 200.0 mg/kg/injection, schedule: Q01DX009 (ip), vehicle: saline
[6] = dose: 75.0 mg/kg/injection, schedule: Q01DX001 (ip), vehicle: saline
[7] = dose: 150.0 mg/kg/injection, schedule: Q01DX001 (ip), vehicle: saline
[8] = dose: 100.0 mg/kg/injection, schedule: Q01DX009 (ip), vehicle: Klucel (hydroxypropylcellulose) (HPC)
[9] = dose: 200.0 mg/kg/injection, schedule: Q01DX009 (ip), vehicle: Klucel (hydroxypropylcellulose) (HPC)
[10] = dose: 400.0 mg/kg/injection, schedule: Q01DX009 (ip), vehicle: Klucel (hydroxypropylcellulose) (HPC)
[11] = dose: 100.0 mg/kg/injection, schedule: Q04DX003 (ip), vehicle: saline with Tween-80
[12] = dose: 400.0 mg/kg/injection, schedule: Q04DX003 (ip), vehicle: saline with Tween-80
[13] = dose: 50.0 mg/kg/injection, schedule: Q01DX001 (ip), vehicle: carboxymethylcellulose (CMC)
[14] = dose: 100.0 mg/kg/injection, schedule: Q01DX001 (ip), vehicle: carboxymethylcellulose (CMC)
[15] = dose: 200.0 mg/kg/injection, schedule: Q01DX001 (ip), vehicle: carboxymethylcellulose (CMC)
[16] = dose: 100.0 mg/kg/injection, schedule: Q01DX009 (ip), vehicle: saline with Tween-80
[17] = dose: 200.0 mg/kg/injection, schedule: Q01DX009 (ip), vehicle: saline with Tween-80
[18] = dose: 400.0 mg/kg/injection, schedule: Q01DX009 (ip), vehicle: saline with Tween-80
[19] = dose: 100.0 mg/kg/injection, schedule: Q04DX003 (ip), vehicle: Klucel (hydroxypropylcellulose) (HPC)
[20] = dose: 200.0 mg/kg/injection, schedule: Q04DX003 (ip), vehicle: Klucel (hydroxypropylcellulose) (HPC)

Q: What does the source list for `Cc1ccc(NC(=S)Nc2ccc(C(C)C)cc2)c(C)c1`?
A: T/C [1]: 118 % of control; T/C [2]: 103 % of control; T/C [3]: 100 % of control

Q: How did the T/C (dose: 50.0 mg/kg/injection, schedule: Q01DX009 (ip), vehicle: saline) turn out when `CCCCCCCCCCCCOP(N)(=O)OCCCCCCCCCCCC` was run?
A: 90 % of control

Q: And the T/C [4]?
A: 88 % of control

Q: What about the T/C (dose: 100.0 mg/kg/injection, schedule: Q04DX003 (ip), vehicle: saline) of the same molecule?
A: 94 % of control

Q: What about the T/C [5] of the same molecule?
A: 88 % of control

Q: And the T/C (dose: 200.0 mg/kg/injection, schedule: Q04DX003 (ip), vehicle: saline)?
A: 90 % of control

Q: Which T/C [6] does the source give for `CCC(COC(=O)c1ccc([N+](=O)[O-])cc1)NCCC1CCCCC1` (centres undefined) here?
A: 101 % of control

Q: And the T/C [7]?
A: 104 % of control

Q: What about the T/C (dose: 300.0 mg/kg/injection, schedule: Q01DX001 (ip), vehicle: saline) of the same molecule?
A: 103 % of control

Q: How did the T/C (dose: 15.0 mg/kg/injection, schedule: Q01DX Z (ip), vehicle: carboxymethylcellulose (CMC)) turn out when `C/C(=N/N=C(N)N)c1ccc(Cl)cc1` was run?
A: 96 % of control

Q: What about the T/C (dose: 15.0 mg/kg/injection, schedule: Q01DX Z (oral), vehicle: carboxymethylcellulose (CMC)) of the same molecule?
A: 108 % of control

Q: What about the T/C (dose: 30.0 mg/kg/injection, schedule: Q01DX Z (ip), vehicle: carboxymethylcellulose (CMC)) of the same molecule?
A: 95 % of control

Q: And the T/C (dose: 30.0 mg/kg/injection, schedule: Q01DX Z (oral), vehicle: carboxymethylcellulose (CMC))?
A: 104 % of control

Q: What about the T/C (dose: 60.0 mg/kg/injection, schedule: Q01DX Z (oral), vehicle: carboxymethylcellulose (CMC)) of the same molecule?
A: 98 % of control

Q: With `Cc1ccnc(NC(=O)Nc2ccc(F)c([N+](=O)[O-])c2)c1` as the molecule, how does the T/C [8] read?
A: 91 % of control

Q: What about the T/C [9] of the same molecule?
A: 96 % of control

Q: And the T/C [10]?
A: 104 % of control

Q: With `CCOC(=O)c1cc(=O)[nH]c2ccc(OC)cc12` as the molecule, how does the T/C [11] read?
A: 98 % of control

Q: And the T/C (dose: 200.0 mg/kg/injection, schedule: Q04DX003 (ip), vehicle: saline with Tween-80)?
A: 102 % of control

Q: And the T/C [12]?
A: 91 % of control

Q: `Cc1ccccc1N=Nc1c(O)[nH]c2ccccc12` was tested. Which T/C (dose: 100.0 mg/kg/injection, schedule: Q01DX001 (ip), vehicle: acetone) did it give?
A: 93 % of control

Q: What about the T/C (dose: 200.0 mg/kg/injection, schedule: Q01DX001 (ip), vehicle: acetone) of the same molecule?
A: 95 % of control

Q: What about the T/C (dose: 400.0 mg/kg/injection, schedule: Q01DX001 (ip), vehicle: acetone) of the same molecule?
A: 96 % of control

Q: Which T/C [13] does the source give for `COCC(C)CNC(=S)Nc1ccccc1` (centres undefined) here?
A: 108 % of control

Q: What about the T/C [14] of the same molecule?
A: 103 % of control

Q: What about the T/C [15] of the same molecule?
A: 103 % of control

Q: And the T/C (dose: 400.0 mg/kg/injection, schedule: Q01DX001 (ip), vehicle: carboxymethylcellulose (CMC))?
A: 105 % of control

Q: For `Cc1ccc(C(=O)n2c(Cl)c(/C=N/NC(N)=S)c3ccccc32)cc1`, which T/C (dose: 50.0 mg/kg/injection, schedule: Q04DX002 (ip), vehicle: Klucel (hydroxypropylcellulose) (HPC)) is on record?
A: 87 % of control

Q: What about the T/C [1] of the same molecule?
A: 95 % of control

Q: With `CCOC(=O)C(Cc1c[nH]c2ccccc12)NC(C)=O` (centres undefined) as the molecule, how does the T/C [1] read?
A: 106 % of control

Q: And the T/C [2]?
A: 100 % of control

Q: And the T/C [3]?
A: 95 % of control

Q: `CCc1n[nH]c(C(N)=O)c1O` was tested. Which T/C (dose: 100.0 mg/kg/injection, schedule: Q01DX001 (ip), vehicle: gum acacia) did it give?
A: 103 % of control

Q: What about the T/C [4] of the same molecule?
A: 108 % of control

Q: And the T/C (dose: 200.0 mg/kg/injection, schedule: Q01DX001 (ip), vehicle: gum acacia)?
A: 101 % of control

Q: And the T/C [5]?
A: 104 % of control

Q: What about the T/C (dose: 400.0 mg/kg/injection, schedule: Q01DX001 (ip), vehicle: gum acacia) of the same molecule?
A: 106 % of control

Q: And the T/C (dose: 400.0 mg/kg/injection, schedule: Q01DX009 (ip), vehicle: saline)?
A: 100 % of control

Q: `CC1(CO)C2CCC(O)C1C2` (centres undefined) was tested. Which T/C (dose: 75.0 mg/kg/injection, schedule: Q01DX009 (ip), vehicle: saline) did it give?
A: 103 % of control

Q: What about the T/C (dose: 75.0 mg/kg/injection, schedule: Q04DX003 (ip), vehicle: saline) of the same molecule?
A: 94 % of control

Q: And the T/C (dose: 150.0 mg/kg/injection, schedule: Q01DX009 (ip), vehicle: saline)?
A: 97 % of control

Q: And the T/C (dose: 150.0 mg/kg/injection, schedule: Q04DX003 (ip), vehicle: saline)?
A: 95 % of control

Q: What about the T/C (dose: 300.0 mg/kg/injection, schedule: Q01DX009 (ip), vehicle: saline) of the same molecule?
A: 100 % of control

Q: What about the T/C (dose: 300.0 mg/kg/injection, schedule: Q04DX003 (ip), vehicle: saline) of the same molecule?
A: 102 % of control

Q: How did the T/C [16] turn out when `Cc1ccc(C)c(NC(=O)NCc2ccc(Cl)cc2)c1` was run?
A: 87 % of control

Q: What about the T/C [11] of the same molecule?
A: 93 % of control

Q: What about the T/C [17] of the same molecule?
A: 89 % of control

Q: And the T/C [18]?
A: 93 % of control

Q: And the T/C [12]?
A: 100 % of control

Q: For `COc1cc2c(c(OC)c1OC)-c1ccc(SC)c(=O)cc1C(NC1OC(CO)C(O)C(O)C1O)CC2` (centres undefined), which T/C (dose: 12.5 mg/kg/injection, schedule: Q01DX005 (ip), vehicle: saline) is on record?
A: 100 % of control

Q: What about the T/C (dose: 25.0 mg/kg/injection, schedule: Q01DX005 (ip), vehicle: saline) of the same molecule?
A: 100 % of control

Q: What about the T/C (dose: 50.0 mg/kg/injection, schedule: Q01DX005 (ip), vehicle: saline) of the same molecule?
A: 112 % of control and 119 % of control

Q: And the T/C (dose: 100.0 mg/kg/injection, schedule: Q01DX005 (ip), vehicle: saline)?
A: 116 % of control

Q: With `O=C(Nc1cccc(C(F)(F)F)c1)N1CCN(c2ccccc2)CC1` as the molecule, how does the T/C [8] read?
A: 103 % of control

Q: What about the T/C [9] of the same molecule?
A: 96 % of control

Q: What about the T/C [10] of the same molecule?
A: 106 % of control

Q: How did the T/C [6] turn out when `CCc1ccc(C(=O)O)oc1=O` was run?
A: 89 % of control

Q: What about the T/C [7] of the same molecule?
A: 92 % of control

Q: With `CC(=O)Nc1cc(CN2CCCCC2)c(O)c2ncccc12` as the molecule, how does the T/C (dose: 75.0 mg/kg/injection, schedule: Q01DX001 (ip), vehicle: other) read?
A: 120 % of control

Q: And the T/C (dose: 150.0 mg/kg/injection, schedule: Q01DX001 (ip), vehicle: other)?
A: 105 % of control

Q: What about the T/C (dose: 300.0 mg/kg/injection, schedule: Q01DX001 (ip), vehicle: other) of the same molecule?
A: 107 % of control

Q: `O=C(Nc1ccccc1)c1ccc2c(c1)C(=O)OC2=O` was tested. Which T/C [16] did it give?
A: 102 % of control

Q: What about the T/C [17] of the same molecule?
A: 94 % of control

Q: And the T/C [18]?
A: 89 % of control

Q: With `Nc1ncnc2nc(N=Nc3ccc(S(=O)(=O)N(CCCl)CCCl)cc3)[nH]c12` as the molecule, how does the T/C (dose: 50.0 mg/kg/injection, schedule: Q04DX003 (ip), vehicle: Klucel (hydroxypropylcellulose) (HPC)) read?
A: 93 % of control

Q: What about the T/C [19] of the same molecule?
A: 88 % of control and 91 % of control

Q: And the T/C [20]?
A: 96 % of control

Q: With `CC1CC(C)(C)[N+]2=C(CCCC2)O1` (centres undefined) as the molecule, how does the T/C (dose: 6.25 mg/kg/injection, schedule: Q01DX009 (ip), vehicle: saline) read?
A: 96 % of control

Q: And the T/C (dose: 12.5 mg/kg/injection, schedule: Q01DX009 (ip), vehicle: saline)?
A: 94 % of control

Q: What about the T/C (dose: 25.0 mg/kg/injection, schedule: Q01DX009 (ip), vehicle: saline) of the same molecule?
A: 103 % of control

Q: Which results are given for `COc1cc(C=Nc2cccc(F)c2)ccc1N(CCCl)CCCl`?
A: T/C (dose: 2.5 mg/kg/injection, schedule: Q01DX009 (ip), vehicle: carboxymethylcellulose (CMC)): 96 % of control; T/C (dose: 5.0 mg/kg/injection, schedule: Q01DX009 (ip), vehicle: carboxymethylcellulose (CMC)): 104 % of control; T/C (dose: 10.0 mg/kg/injection, schedule: Q01DX009 (ip), vehicle: acetone): 118 % of control; T/C (dose: 10.0 mg/kg/injection, schedule: Q01DX009 (ip), vehicle: carboxymethylcellulose (CMC)): 108 % of control; T/C (dose: 45.0 mg/kg/injection, schedule: Q01DX001 (ip), vehicle: saline): 110 % of control; T/C [13]: 101 % of control; T/C (dose: 67.0 mg/kg/injection, schedule: Q01DX001 (ip), vehicle: saline): 115 % of control; T/C [14]: 98 % of control; T/C [15]: 103 % of control; T/C (dose: 200.0 mg/kg/injection, schedule: Q01DX001 (ip), vehicle: saline): 152 % of control

Q: Which T/C [14] does the source give for `Cc1cc(/C=C\c2ccc3ccccc3[n+]2C)c(O)c2ncccc12` here?
A: 110 % of control

Q: What about the T/C [15] of the same molecule?
A: 93 % of control

Q: With `CCC[n+]1ccc(C#N)cc1` as the molecule, how does the T/C [6] read?
A: 106 % of control

Q: What about the T/C [7] of the same molecule?
A: 89 % of control

Q: What does the source list for `OC(C/C(CNNc1ccccc1)=N/Nc1ccccc1)(C(F)(F)F)C(F)(F)F`?
A: T/C [19]: 96 % of control; T/C [20]: 103 % of control; T/C (dose: 400.0 mg/kg/injection, schedule: Q04DX003 (ip), vehicle: Klucel (hydroxypropylcellulose) (HPC)): 92 % of control
